Where a name gives a salt, the structure may show the parent alone.

Assay [1] deals with T1, dopamine D-1 receptors (Rattus norvegicus, UniProt P18901).
T1 construct: Retinal tissue was removed from the eyeball and homogenized; from tissue; host or cells: rat retina homogenate (adult male Sprague-Dawley)
Briefly: Retinal Adenylate Cyclase Assay (dopamine D-1 antagonist assay). The assay is classed as biochemical, rat (adult male, Sprague-Dawley). The settings on record: 10 μM dopamine, rat retina homogenate; for inhibition at 0.1 µM: 0.1 μM drug; for inhibition at 1 µM: 1.0 μM drug; for inhibition at 3 µM: 3.0 μM drug; for inhibition at 10 µM: 10.0 μM drug; for inhibition at 100 µM: 100.0 μM drug. As to the method:
The compounds of this invention are dopamine D-1 antagonists without D-2 agonist activity; i.e., they counter the effects of dopamine at D-1 receptors in the brain. The dopamine D-1 antagonist assay was carried out as follows.
Retinal Adenylate Cyclase Assay
Adult male, Sprague-Dawley rats purchased from Charles River Breeding Laboratories (North Wilmington, Mass.) were used in these studies. The rats were decapitated and the eyeballs were removed. The eyeballs were bisected at the juncture of the sclera and iris using capsulotomy scissors. The retina was dissociated from the choroid by irrigation with saline. Retinal tissue was removed from the eyeball and homogenized with Tris-2 mM EGTA (pH 7.4; 1:150 wt.:vol.) using a teflon-glass Dounce homogenizer at a speed of 50 rpm.
The adenylate cyclase assay was performed at an incubation temperature of 30° C. and over a 20-minute reaction period. The reaction mixture contained the following constant ingredients: 2 mM MgSO4, 0.5 mM EGTA, 1 mM IBMX, 0.01 mM GTP, 80 mM Tris-HCl, pH 7.4, 0.5 mM ATP with 3-5×10^6 cpm ^32 P-ATP and 20-25 μg retinal homogenate protein. The reaction mixture also contained various concentrations of the compound tested alone or in the presence of 10 μM dopamine. The reaction was started by the addition of ATP/^32 P-ATP and was stopped by the addition of a solution containing 1% SDS, 20 mM ATP, 0.7 mM cyclic AMP, 80 mM Tris-HCl pH 7.4 and 10^4 cpm ^3 H-cyclic AMP in a total volume of 200 μl. This mixture was heated for 2 minutes at 90° C. to further insure reaction termination. The ^32 P cyclic AMP formed during the reaction was isolated from each sample using the chromatographic method of Solomon (1979). The ^3 H-cyclic AMP was also simultaneously isolated with this procedure. The net ^32 P-cyclic AMP formed was calculated by correcting the final ^32 P cpm for column recovery efficiency delermined by the ^3 H recovery and for background radioactivity determined by the radioactivity in incubates without homogenate. Homogenate protein determinations were made using the BioRad protein assay with bovine serum albumin used at the reference protein. Dopaminergic agonist activity was evaluated based upon percent stimulation over activity without drug. Dopaminergic antagonist activity was estimated based upon the percent inhibition of the response to 10 μM dopamine.
In the Table, column 1 gives the name of the compound, column 2, the concentration of drug in the medium, and column 3, the percent inhibition of 10 μM dopamine.

In assay [2] the test system is prolactin secretion (D-2). Kind of assay: Inhibition of prolactin secretion in nonreserpinized rats (test for D-2 dopamine agonist activity). The settings on record: 1 hour after treatment, rat serum. Format: in vivo, rat (adult male, Sprague-Dawley). As for the experimental part: The drugs of this invention, represented by formulas II and III, are shown to lack D-2 dopamine agonist activity at D-1 antagonist dose levels in a test to determine their ability (or inability) to inhibit the secretion of prolactin in nonrespernized rats. This test was carried out as follows.
Adult male rats of the Sprague-Dawley strain weighing about 200 g. were housed in an air-conditioned room with controlled lighting (14 hours light-10 hours dark) and fed lab chow and water ad libitum. The compound was dissolved in 10 percent ethanol, and injected intraperitoneally at a dose of 1 or 2 mg/kg. The compound was administered to a group of 10 rats, and a control group of 10 intact males received an equivalent amount of 10 percent ethanol. One hour after treatment, all rats were killed by decapitation, and 150 μl aliquots of serum were assayed for prolactin.
The difference between the mean prolactin level of the treated rats and mean prolactin level of the control rats, divided by the mean prolactin level of the control rats, gives the percent change in prolactin secretion attributable to the given dose.

In assay [3] the test system is prolactin. Particulars: found by Clemens, Semonsky, Meites and co-workers; cited from earlier work.

T1 sequence (P18901 whole entry): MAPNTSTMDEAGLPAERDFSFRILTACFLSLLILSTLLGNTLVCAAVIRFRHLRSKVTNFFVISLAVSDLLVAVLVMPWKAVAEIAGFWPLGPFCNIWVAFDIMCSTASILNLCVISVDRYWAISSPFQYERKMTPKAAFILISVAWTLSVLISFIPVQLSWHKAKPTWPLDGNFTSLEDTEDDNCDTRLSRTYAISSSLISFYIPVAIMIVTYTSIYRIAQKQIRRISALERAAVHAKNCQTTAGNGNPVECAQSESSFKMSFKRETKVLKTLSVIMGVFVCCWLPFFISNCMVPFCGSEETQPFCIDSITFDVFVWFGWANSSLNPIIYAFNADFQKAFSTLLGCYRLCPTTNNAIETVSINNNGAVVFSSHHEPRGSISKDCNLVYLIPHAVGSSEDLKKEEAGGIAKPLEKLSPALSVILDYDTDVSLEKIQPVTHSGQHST

As for `CSc1[nH]c2cccc3c2c1CC(N(C)C)C3` (racemic) [(±)-2-methylthio-4-dimethyamino-1,3,4,5-tetrahydrobenz[c,d]indole maleate], in assay [1], the inhibition at 0.1 µM was -5.3%, the inhibition at 1 µM was 0.9 ± 1.5%, the inhibition at 3 µM was 19.1 ± 6.4% and the inhibition at 10 µM turned out to be 34.7 ± 13%. Besides, in assay [1], the inhibition at 100 µM is 84 ± 3.3%. For the same molecule, in assay [1] (0.3 μM drug), the inhibition at 0.3 µM was -2.2 ± 3.8%. For the same molecule, in assay [2] (ip, 1 mg/kg i.p., not marked as statistically significant, read-out: Percent changes in prolactin (inhibition)), the inhibition at 1 mg/kg is 9%.
Regarding `CC(C)C[C@H]1C(=O)N2CCC[C@H]2[C@]2(O)O[C@](NC(=O)[C@@H]3C=C4c5cccc6[nH]c(Br)c(c56)C[C@H]4N(C)C3)(C(C)C)C(=O)N12` [2-bromo α-ergokryptine], in assay [3], the “activity as prolactin inhibitors” value is given as “activity as prolactin inhibitors”.
Take `CSc1[nH]c2cccc3c2c1C[C@@H]1[C@@H]3CC(CC#N)CN1C` (stereo partly drawn) [D-2-methylthio-6-methyl-8-cyanomethylergoline]: in assay [2] (ip, 2 mg/kg i.p., * statistically significant at p < 0.05, read-out: Percent changes in prolactin (inhibition)), the inhibition at 2 mg/kg was determined as 68%.
Consider `CSC[C@@H]1C[C@@H]2c3cccc4[nH]c(SC)c(c34)C[C@H]2N(C)C1` [D-2-methylthio-6-methyl-8β-methylthiomethylergoline], for which, in assay [1], the inhibition at 0.1 µM was -5%, the inhibition at 1 µM was 26.4 ± 6%, the inhibition at 3 µM worked out at 49 ± 0.8% and the inhibition at 10 µM turned out to be 72.5 ± 4.8%. In addition, the inhibition at 100 µM in assay [1] was 76.6 ± 7.7%. Besides, in assay [1] (30.0 μM drug), the inhibition at 30 µM turned out to be 73.8 ± 4.2%. The “Percent changes in prolactin (stimulation)” value in assay [2] (2 mg/kg i.p., * statistically significant at p < 0.05) was 54%.
On to `CN1CC(CC#N)C[C@@H]2c3cccc4[nH]cc(c34)C[C@H]21` (stereo partly drawn) [D-6-methyl-8-cyanomethylergoline], for which the “activity as prolactin inhibitors” value in assay [3] is given as “activity as prolactin inhibitors”.
`CC(C)[C@H]1C(=O)N2CCC[C@H]2[C@]2(O)O[C@](NC(=O)[C@@H]3C=C4c5cccc6[nH]cc(c56)C[C@H]4N(C)C3)(C(C)C)C(=O)N12` [Ergocornine]: in assay [3], the “activity as prolactin inhibitors” value was “activity as prolactin inhibitors”.
`CC(C)[C@H]1C(=O)N2CCC[C@H]2[C@]2(O)O[C@](NC(=O)[C@@H]3C[C@@H]4c5cccc6[nH]cc(c56)C[C@H]4N(C)C3)(C(C)C)C(=O)N12` [dihydroergocornine]: the “activity as prolactin inhibitors” value in assay [3] is listed as “activity as prolactin inhibitors”.

Broadly, the inhibition is the change of the read-out against control, counted positive when it falls.
